ChEMBL document CHEMBL5034023, “Development of Multifunctional and Orally Active Cyclic Peptide Agonists of Opioid/Neuropeptide FF Receptors that Produce Potent, Long-Lasting, and Peripherally Restricted Antinociception with Diminished Side Effects” (J Med Chem, 2021)
Calls of active or inactive are those of the source. The calls are words filed in the database; no cut-off is given here. Bridge positions count the residues as written; N and C are the ends. Square brackets hold non-standard residues; d marks the D form. Peptide text beside a SMILES is read from it. NMeF = CN[C@@H](Cc1ccccc1)C(=O)O; dOrn = NCCC[C@@H](N)C(=O)O

How the values were obtained:
[1] = target: Kappa-type opioid receptor (Homo sapiens, UniProt P41145); assay type: functional, cell-based, HEK293-A
Chain of Kappa-type opioid receptor (P41145 whole entry): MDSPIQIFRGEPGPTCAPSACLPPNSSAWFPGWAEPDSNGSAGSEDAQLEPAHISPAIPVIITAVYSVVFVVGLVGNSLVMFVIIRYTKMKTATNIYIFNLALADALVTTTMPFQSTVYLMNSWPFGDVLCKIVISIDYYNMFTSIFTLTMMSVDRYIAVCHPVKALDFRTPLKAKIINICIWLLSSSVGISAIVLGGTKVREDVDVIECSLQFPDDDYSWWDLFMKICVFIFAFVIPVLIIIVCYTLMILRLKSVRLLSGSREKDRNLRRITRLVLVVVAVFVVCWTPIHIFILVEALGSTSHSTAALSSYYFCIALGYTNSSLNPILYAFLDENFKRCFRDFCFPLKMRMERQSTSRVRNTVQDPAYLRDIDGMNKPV

[2] = target: T1, Delta-type opioid receptor (Homo sapiens, UniProt P41143); test: Agonist activity at DOR (unknown origin) expressed in HEK293-A cells assessed as inhibition of forskolin-induced cAMP accumulation preincubated for 30 mins in presence of 3-isobutyl-1-methylxanthine followed by forskolin and compound addition by competitive PKA binding assay; assay type: functional, cell-based
T1 sequence (P41143 whole entry): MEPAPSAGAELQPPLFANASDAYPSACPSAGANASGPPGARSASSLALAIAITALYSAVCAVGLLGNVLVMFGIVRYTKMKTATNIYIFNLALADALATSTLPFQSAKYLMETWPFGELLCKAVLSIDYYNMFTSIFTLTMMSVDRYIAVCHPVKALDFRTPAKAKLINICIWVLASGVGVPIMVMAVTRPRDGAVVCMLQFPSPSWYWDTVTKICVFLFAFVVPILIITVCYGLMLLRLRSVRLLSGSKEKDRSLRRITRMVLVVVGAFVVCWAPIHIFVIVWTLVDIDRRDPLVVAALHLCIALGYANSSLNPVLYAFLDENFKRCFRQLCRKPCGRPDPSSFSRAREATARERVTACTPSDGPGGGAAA

[3] = target: T1, Delta-type opioid receptor; test: Agonist activity at DOR (unknown origin) expressed in HEK293-A cells assessed as inhibition of forskolin-induced cAMP accumulation preincubated for 30 mins in presence of 3-isobutyl-1-methylxanthine followed by forskolin and compound addition by competitive PKA binding assay relative to control; assay type: functional, cell-based; details: filed as agonist
[4] = target: T2, Neuropeptide FF receptor 1 (Homo sapiens, UniProt Q9GZQ6); test: Agonist activity at NPFF1R (unknown origin) expressed in HEK293-A cells assessed as inhibition of forskolin-induced cAMP accumulation preincubated for 30 mins in presence of 3-isobutyl-1-methylxanthine followed by forskolin and compound addition by competitive PKA binding assay; assay type: functional, cell-based
T2 sequence (Q9GZQ6 whole entry): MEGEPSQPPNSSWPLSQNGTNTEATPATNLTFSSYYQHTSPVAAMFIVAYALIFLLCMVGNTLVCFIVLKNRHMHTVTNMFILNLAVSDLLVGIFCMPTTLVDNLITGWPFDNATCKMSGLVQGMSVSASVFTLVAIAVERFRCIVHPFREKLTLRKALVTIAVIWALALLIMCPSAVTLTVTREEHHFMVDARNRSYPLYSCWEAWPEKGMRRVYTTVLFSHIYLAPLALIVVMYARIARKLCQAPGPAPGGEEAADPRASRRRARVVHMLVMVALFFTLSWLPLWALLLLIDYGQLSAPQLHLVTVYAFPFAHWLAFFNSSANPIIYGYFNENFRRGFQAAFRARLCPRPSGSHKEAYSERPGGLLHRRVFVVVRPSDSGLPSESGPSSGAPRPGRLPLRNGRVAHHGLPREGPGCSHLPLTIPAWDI

[5] = target: T2, Neuropeptide FF receptor 1; test: Agonist activity at NPFF1R (unknown origin) expressed in HEK293-A cells assessed as inhibition of forskolin-induced cAMP accumulation by measuring maximal efficacy preincubated for 30 mins in presence of 3-isobutyl-1-methylxanthine followed by forskolin and compound addition by competitive PKA binding assay relative to control; assay type: functional, cell-based; details: filed as agonist
[6] = target: T3, Neuropeptide FF receptor 2 (Homo sapiens, UniProt Q9Y5X5); test: Agonist activity at NPFF2R (unknown origin) expressed in HEK293-A cells assessed as inhibition of forskolin-induced cAMP accumulation preincubated for 30 mins in presence of 3-isobutyl-1-methylxanthine followed by forskolin and compound addition by competitive PKA binding assay; assay type: functional, cell-based
T3 sequence (Q9Y5X5 whole entry): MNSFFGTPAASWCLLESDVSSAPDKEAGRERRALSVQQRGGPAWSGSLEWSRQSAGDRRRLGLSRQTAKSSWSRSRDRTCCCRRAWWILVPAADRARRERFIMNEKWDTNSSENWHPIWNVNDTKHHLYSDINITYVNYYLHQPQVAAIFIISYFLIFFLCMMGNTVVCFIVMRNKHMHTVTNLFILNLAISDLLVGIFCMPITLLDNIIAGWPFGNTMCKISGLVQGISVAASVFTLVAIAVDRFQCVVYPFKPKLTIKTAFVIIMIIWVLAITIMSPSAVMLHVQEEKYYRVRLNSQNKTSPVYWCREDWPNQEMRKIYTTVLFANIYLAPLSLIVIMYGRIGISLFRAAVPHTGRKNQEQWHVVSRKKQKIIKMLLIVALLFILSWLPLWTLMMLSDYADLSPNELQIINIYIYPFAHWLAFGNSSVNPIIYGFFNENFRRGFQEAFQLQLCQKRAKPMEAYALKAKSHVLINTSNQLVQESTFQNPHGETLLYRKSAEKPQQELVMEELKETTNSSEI

[7] = target: T3, Neuropeptide FF receptor 2; test: Agonist activity at NPFF2R (unknown origin) expressed in HEK293-A cells assessed as inhibition of forskolin-induced cAMP accumulation by measuring maximal efficacy preincubated for 30 mins in presence of 3-isobutyl-1-methylxanthine followed by forskolin and compound addition by competitive PKA binding assay relative to control; assay type: functional, cell-based; details: filed as agonist
[8] = Metabolic stability in mouse plasma assessed as degradation half life at 0.01 M measured up to 360 mins; assay type: ADME, cell-free
Mus musculus [9] = test: Antinociceptive activity against Kunming mouse model of thermal-induced nociception assessed as peripheral analgesia administered subcutaneously by tail-flick test; assay type: functional; details: sc
Mus musculus [10] = test: Antinociceptive activity against Kunming mouse model of thermal-induced nociception assessed as duration of analgesic effect administered subcutaneously by tail-flick test; assay type: functional
Mus musculus [11] = test: Antinociceptive activity in Kunming mouse assessed as analgesic tolerance administered subcutaneously once daily for 8 days by tail flick test; assay type: functional, organism-based; details: time 8.0 day
Mus musculus [12] = test: Antinociceptive activity against Kunming mouse model of thermal-induced nociception assessed as maximum possible effect at 8681 nmol/kg, po measured after 20 min by tail flick test relative to control; assay type: functional
Mus musculus [13] = test: Antinociceptive activity against Kunming mouse model of thermal-induced nociception assessed as maximum possible effect at 8681 nmol/kg, po measured after 30 min by tail flick test relative to control; assay type: functional; details: 0.5 h
Mus musculus [14] = test: Antinociceptive activity against Kunming mouse model of thermal-induced nociception assessed as maximum possible effect at 8681 nmol/kg, po measured after 60 min by tail flick test relative to control; assay type: functional; details: 1 h
Mu-type opioid receptor = Mu-type opioid receptor (Homo sapiens, UniProt P35372)
Chain of Mu-type opioid receptor (P35372 whole entry): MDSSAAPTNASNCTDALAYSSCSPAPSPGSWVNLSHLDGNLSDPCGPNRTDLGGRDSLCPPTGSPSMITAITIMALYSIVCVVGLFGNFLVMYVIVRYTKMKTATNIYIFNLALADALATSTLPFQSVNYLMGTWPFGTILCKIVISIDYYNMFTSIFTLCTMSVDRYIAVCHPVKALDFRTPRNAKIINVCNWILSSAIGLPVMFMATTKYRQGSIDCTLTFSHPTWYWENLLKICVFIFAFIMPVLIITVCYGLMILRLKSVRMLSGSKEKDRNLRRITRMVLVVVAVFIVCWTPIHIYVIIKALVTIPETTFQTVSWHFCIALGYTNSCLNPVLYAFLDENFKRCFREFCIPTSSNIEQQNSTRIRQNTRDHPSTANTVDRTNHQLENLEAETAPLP

Mus musculus [15] = test: Potency index, ratio of test compound ED50 to DN-9 ED50 for antinociceptive activity against Kunming mouse model of thermal-induced nociception assessed as peripheral analgesia administered subcutaneously by tail-flick test; assay type: functional
Mus musculus [16] = test: Antinociceptive activity against Kunming mouse model of thermal-induced nociception assessed as maximum possible effect at 37915 nmol/kg, po measured after 20 min by tail flick test relative to control; assay type: functional
Mus musculus [17] = test: Antinociceptive activity against Kunming mouse model of thermal-induced nociception assessed as maximum possible effect at 37915 nmol/kg, po measured after 30 min by tail flick test relative to control; assay type: functional; details: 0.5 h
Mus musculus [18] = test: Antinociceptive activity against Kunming mouse model of thermal-induced nociception assessed as maximum possible effect at 37915 nmol/kg, po measured after 60 min by tail flick test relative to control; assay type: functional; details: 1 h
Mus musculus [19] = test: Antinociceptive activity against Kunming mouse model of thermal-induced nociception assessed as prolongation of tail-flick latency period at 38 umol/kg, po measured up to 240 mins by tail-flick test; assay type: functional, organism-based; details: dose 38.0 µmol/kg, time min <=240
Mus musculus [20] = test: Antinociceptive activity against Kunming mouse model of thermal-induced nociception assessed as maximum possible effect at 86.8 nmol/kg, po measured after 20 min by tail flick test relative to control; assay type: functional
Mus musculus [21] = test: Antinociceptive activity against Kunming mouse model of thermal-induced nociception assessed as maximum possible effect at 86.8 nmol/kg, po measured after 30 min by tail flick test relative to control; assay type: functional; details: 0.5 h
Mus musculus [22] = test: Antinociceptive activity against Kunming mouse model of thermal-induced nociception assessed as maximum possible effect at 86.8 nmol/kg, po measured after 60 min by tail flick test relative to control; assay type: functional; details: 1 h
[23] = target: T1, Delta-type opioid receptor; test: Potency index, ratio of DN-9 EC50 to test compound EC50 for agonist activity at DOR (unknown origin) expressed in HEK293-A cells assessed as inhibition of forskolin-induced cAMP accumulation preincubated for 30 mins in presence of 3-isobutyl-1-methylxanthine followed by forskolin and compound addition by competitive PKA binding assay; assay type: functional, cell-based
Mus musculus [24] = test: Antinociceptive activity against Kunming mouse model of thermal-induced nociception assessed as maximum possible effect at 87.9 nmol/kg, po measured after 20 min by tail flick test relative to control; assay type: functional
Mus musculus [25] = test: Antinociceptive activity against Kunming mouse model of thermal-induced nociception assessed as maximum possible effect at 87.9 nmol/kg, po measured after 30 min by tail flick test relative to control; assay type: functional; details: 0.5 h
Mus musculus [26] = test: Antinociceptive activity against Kunming mouse model of thermal-induced nociception assessed as maximum possible effect at 87.9 nmol/kg, po measured after 60 min by tail flick test relative to control; assay type: functional; details: 1 h
Mus musculus [27] = test: Antinociceptive activity against Kunming mouse model of thermal-induced nociception assessed as maximum possible effect at 264201 nmol/kg, po measured after 20 min by tail flick test relative to control; assay type: functional
Mus musculus [28] = test: Antinociceptive activity against Kunming mouse model of thermal-induced nociception assessed as maximum possible effect at 264201 nmol/kg, po measured after 30 min by tail flick test relative to control; assay type: functional; details: 0.5 h
Mus musculus [29] = test: Antinociceptive activity against Kunming mouse model of thermal-induced nociception assessed as maximum possible effect at 264201 nmol/kg, po measured after 60 min by tail flick test relative to control; assay type: functional; details: 1 h
Mus musculus [30] = test: Antinociceptive activity against Kunming mouse model of thermal-induced nociception assessed as prolongation of tail-flick latency period at 264 umol/kg, po measured up to 240 mins by tail-flick test; assay type: functional, organism-based; details: dose 264.0 µmol/kg, time min <=240

Row | Compound | EC50 [1] [µM] | EC50 [2] [µM] | Emax [3] [%] | EC50 [4] [µM] | Emax [5] [%] | EC50 ([6]; read-out: EC50) [µM] | Emax [7] [%] | half-life at 10000 µM [8] [min] | ED50 (Mus musculus [9]) [µmol/kg] | Tlast (Mus musculus [10]) [min] | Activity (Mus musculus [11]) | MPE (Mus musculus [12]) [%] | MPE (Mus musculus [13]) [%] | MPE (Mus musculus [14]) [%] | EC50 (Mu-type opioid receptor) [µM] | Ratio ED50 (Mus musculus [15]) | also measured
1 | CN1C(=O)CNC(=O)[C@@H](NC(=O)[C@@H](N)Cc2ccc(O)cc2)CCCCNC(=O)C[C@@H](C(=O)N2CCC[C@H]2C(=O)N[C@@H](CCC(N)=O)C(=O)N[C@@H](CCCNC(=N)N)C(=O)N[C@@H](Cc2ccccc2)C(N)=O)NC(=O)[C@@H]1Cc1ccccc1 (H-YKG[NMeF]DPQRF-NH2; lactam 2-5) | 0.32 | 0.0282 | 65.7 | 0.0289 | 80.6 | 0.112 | 68.1 | 9.9 | 0.022 | 240 | inactive | 93.9 | 93.2 | 76.3 | 0.0726 | – | –
2 | CN1C(=O)CNC(=O)[C@@H](NC(=O)[C@@H](N)Cc2ccc(O)cc2)CCCCNC(=O)C[C@H](C(=O)N2CCC[C@H]2C(=O)N[C@@H](CCC(N)=O)C(=O)N[C@@H](CCCNC(=N)N)C(=O)N[C@@H](Cc2ccccc2)C(N)=O)NC(=O)[C@@H]1Cc1ccccc1 (H-YKG[NMeF][dD]PQRF-NH2; lactam 2-5) | – | 0.923 | 62.2 | 0.104 | 76.2 | 0.0815 | 62.4 | 6.7 | 0.0263 | 240 | inactive | 94.1 | 82.5 | 70.6 | 0.167 | – | –
3 | C[C@@H](NC(=O)[C@@H](N)Cc1ccc(O)cc1)C(=O)NCC(=O)N(C)[C@@H](Cc1ccccc1)C(=O)NCC(=O)N1CCC[C@H]1C(=O)N[C@@H](CCC(N)=O)C(=O)N[C@@H](CCCNC(=N)N)C(=O)N[C@@H](Cc1ccccc1)C(N)=O (H-Y[dA]G[NMeF]GPQRF-NH2) | – | – | – | – | – | – | – | 21.8 | 0.216 | 90 | inactive | – | – | – | – | 1 | MPE (Mus musculus [16]): 75.6%; MPE (Mus musculus [17]): 63.1%; MPE (Mus musculus [18]): 22.8%; Activity (Mus musculus [19]): Active
4 | CN1C(=O)CNC(=O)[C@H](NC(=O)[C@@H](N)Cc2ccc(O)cc2)CC(=O)NCCCC[C@@H](C(=O)N2CCC[C@H]2C(=O)N[C@@H](CCC(N)=O)C(=O)N[C@@H](CCCNC(=N)N)C(=O)N[C@@H](Cc2ccccc2)C(N)=O)NC(=O)[C@@H]1Cc1ccccc1 (H-Y[dD]G[NMeF]KPQRF-NH2; lactam 2-5) | 0.0813 | 0.0742 | 56 | 0.222 | 77.6 | 0.303 | 71.8 | 10.8 | 0.0137 | 240 | inactive | – | – | – | 0.0663 | 15.7 | EC50 ([6]; read-out: pEC50 (converted)): 0.309 µM; MPE (Mus musculus [20]): 88.7%; MPE (Mus musculus [21]): 95.6%; MPE (Mus musculus [22]): 80.5%; Ratio EC50 [23]: 7
5 | CN1C(=O)CNC(=O)[C@H](NC(=O)[C@@H](N)Cc2ccc(O)cc2)CCCCNC(=O)C[C@H](C(=O)N2CCC[C@H]2C(=O)N[C@@H](CCC(N)=O)C(=O)N[C@@H](CCCNC(=N)N)C(=O)N[C@@H](Cc2ccccc2)C(N)=O)NC(=O)[C@@H]1Cc1ccccc1 (H-Y[dK]G[NMeF][dD]PQRF-NH2; lactam 2-5) | – | 0.581 | 60.3 | 0.528 | 75.6 | 0.19 | 59 | 18.7 | 0.0201 | 240 | inactive | 92.6 | 94.1 | 74.1 | 0.586 | – | –
6 | CN1C(=O)CNC(=O)[C@H](NC(=O)[C@@H](N)Cc2ccc(O)cc2)CCCNC(=O)C[C@@H](C(=O)N2CCC[C@H]2C(=O)N[C@@H](CCC(N)=O)C(=O)N[C@@H](CCCNC(=N)N)C(=O)N[C@@H](Cc2ccccc2)C(N)=O)NC(=O)[C@@H]1Cc1ccccc1 (H-Y[dOrn]G[NMeF]DPQRF-NH2; lactam 2-5) | 0.139 | 0.659 | 51.9 | 0.439 | 72.4 | 0.133 | 52.8 | 41.1 | 0.0132 | 240 | inactive | – | – | – | 0.168 | 16.4 | MPE (Mus musculus [24]): 80.8%; MPE (Mus musculus [25]): 96%; MPE (Mus musculus [26]): 70.7%
7 | CN1CC[C@]23c4c5ccc(O)c4O[C@H]2[C@@H](O)C=C[C@H]3[C@H]1C5 [MORPHINE] | – | – | – | – | – | – | – | – | – | – | – | – | – | – | – | – | MPE (Mus musculus [27]): 75.3%; MPE (Mus musculus [28]): 87.6%; MPE (Mus musculus [29]): 63%; Activity (Mus musculus [30]): Active
